{"source": "patent US8557565B2", "about": "“Degradation of polycyclic aromatic hydrocarbons to render them available for biodegradation” (priority 1999, dated 2013)", "key": {"[1]": {"assay": "Mass and COD balance of PAH-packed column fed with ozonated water", "details": "pyrene-loaded column, 4 h ozonation"}, "[2]": {"assay": "Saturated aqueous solution (dissolution equilibrium in water)", "details": "equilibrium overnight, 0.45-μm filtered"}, "[3]": {"assay": "Ozonation reaction kinetics of spilt oil constituents in bipolar solvent", "format": "physicochemical", "details": "for tentative estimated pseudo-first-order rate constant k′: ozonation of spilt oil (480 mg/L) in n-heptane/acetic acid 1:1 bipolar solvent, about 20° C.; for behaviour under ozonation in the bipolar solvent: spilt oil constituents", "source_text": "In this work example, an innovative treatment is developed for spilt oils from southern Kuwait desert that involves ozonation in a homogeneous solvent system. The solvent is constituted of miscible n-heptane and acetic acid (1:1 by volume), both of that are relatively inexpensive, environmentally benign, and biodegradable. The solvent system allows dissolution of oil in its non-polar heptane constituent, while the hydrophilic acetic acid keeps the progressively more polar intermediates and byproducts being formed from ozonation of oil in solution as the reaction continues. The n-heptane and acetic acid were chosen because of their relatively slow reaction rate with ozone (kO3[M^−1 s^−1] about 10^−3˜1 for alkanes and 3×10^−5 for acetic acid.\nThe amount of oil to be employed in the bipolar solution was determined by its solubility in n-heptane and bipolar solvent.\nThe pseudo-first order rate constants were evaluated by linear regression of all data according to the equations given below. The reaction of ozone with contaminants can be expressed as a second order reaction: −dCA/dt=kCA[O3] (1) where: dCA/dt=rate of reaction of contaminant k=reaction rate constant CA=concentration of contaminant [O3]=concentration of ozone\nIn the present of excess and constant ozone concentration, the rate law for the reaction can be considered as pseudo-first order: −dCA/dt=k′CA (2)\nA glass batch reactor with a working volume of 300 mL was used. Mixing in the reactor was provided by a magnetic mixer operating at 250 rpm. […] Ozone was sparged into the reactor near the bottom through a glass dispersion tube (ACE glass Inc.) Reaction batches were stopped after 0.25, 0.5, 1, 2, 3, 4, 5, 10, 20, 40, 60, 120, and 180 minutes of ozonation. Residual ozone was removed from solution by purging with a gentle N2 stream for 1 min. Samples were kept in 2-mL vials and preserved at 5° C. if necessary prior to GC analysis. Qualitative and quantitative analyses of oil and oxidized oil were performed simultaneously. All samples were concentrated by a gentle stream of N2 gas to best retain the intermediates with lower molecular weights."}, "[4]": {"assay": "Solubility and stability of O3 in aqueous and organic solvents", "format": "physicochemical", "details": "bipolar solvent versus water or heptane alone", "experimental": "The amount of oil to be employed in the bipolar solution was determined by its solubility in n-heptane and bipolar solvent. With an addition of 2.5 ml of distilled deionized water (about 5%) to a homogenous solution 50 ml of n-heptane and 50 ml of acetic acid, the solution was separated into two distinct phases: the n-heptane containing PAHs and other hydrophobic intermediates, and acetic acid phase (95% of acetic acid/5% DD water) containing the hydrophilic byproducts. In this example, about 480 mg/L of oil in the bipolar solvent was ozonated for different durations and the solution contents were analyzed accordingly. Both byproducts in the n-heptane phase and in the 95% acetic acid phase were analyzed by GC/FID, GC/FPD, and GC/MS after the separation. Ozone stability in different solvents: bipolar solvent, n-heptane, 95% acetic acid/5% DD water, and pure acetic acid were also tested by stopping after 20 minutes of ozonation and monitoring the ozone concentration immediately after.\nOzone was generated by an ozone generator (Model T-816, Polymetrics Corp.) from dry and filtered air at an applied voltage of 65V an air flow rate of 2 L/min. The concentration of ozone in the bipolar solvent was determined by absorbance at 270 nm with a spectrophotometer (HP 8452 UV-Vis spectrophotometer, Hewlett Packard Co.) using a predetermined extinction coefficient of 1955 M^−1 cm^−1. […]"}}}
{"compound": "c1cc2ccc3cccc4ccc(c1)c2c34", "note": "[Pyrene]", "values": [{"measurement": "total amount degraded", "setting": "[1]", "result": 0.365, "unit": "mmol"}, {"measurement": "saturated aqueous solution concentration", "setting": "[2]", "result": 0.13, "unit": "ppm"}]}
{"compound": "CCC(C)CCCC(C)CCCC(C)CCCC(C)C", "note": "(stereo not drawn) [Phytane]", "values": [{"measurement": "tentative estimated pseudo-first-order rate constant k′", "setting": "[3]", "result": 0.0178, "unit": "s⁻¹"}, {"measurement": "tentative estimated pseudo-first-order rate constant k′", "setting": "[3]; listed as phytane", "result": 0.0178, "unit": "s⁻¹"}, {"measurement": "behaviour under ozonation in the bipolar solvent", "setting": "[3]", "result": "relatively resistant to ozonation"}]}
{"compound": "O=[O+][O-]", "note": "[Ozone]", "values": [{"measurement": "solubility and stability of O3", "setting": "[4]", "result": "higher solubility and stability"}]}
{"compound": "CCCCCCCCCCCCCCCCCCCC", "note": "[nC20, Icosane]", "values": [{"measurement": "tentative estimated pseudo-first-order rate constant k′", "setting": "[3]", "result": 0.00198, "unit": "s⁻¹"}, {"measurement": "tentative estimated pseudo-first-order rate constant k′", "setting": "[3]; listed as n-icosane", "result": 0.00198, "unit": "s⁻¹"}, {"measurement": "behaviour under ozonation in the bipolar solvent", "setting": "[3]", "result": "relatively resistant to ozonation"}]}
